Measured values reported in US6194601A, “5,6-dihydronaphthalenyl derivatives having retinoid-like activity” (Bristol-Myers Squibb Company, priority 1999, dated 2001).
Entries after “also recorded” stand apart in the source; their conditions may differ. Where two headings read alike, the source gives them in different places.

Assays:
rabbit skin = rabbit skin irritation model; format: in vivo; settings: for Erythema score: Table 3, topical daily 14 days, ethanol; for IS3, irritation relative to TRA: species not given
rhino mice [1] = experiment: rhino mouse assay, comedolytic activity (utriculi size reduction); format: in vivo; settings: for ED30: Table 4, topical activity; for ED30 (30% reduction in utriculi size): rhino mouse, FIG. 1 study
Description: (§1) The comedolytic activity of the compounds of the instant application has been evaluated by the rhino mouse assay model. The compounds were administered daily to rhino mice topically in ethanol at various concentrations for 5 days. Signs of skin irritation are evaluated at day 5 by visual inspection of the mouse skin and graded for edema, erythema (redness) and scaling (flakiness) with scales of 1-5 and 1-4, respectively. Skin samples were taken at day 7 and processed for image analysis to measure the size of utriculi.

rhino mice [2] = system: rhino mice; set-up: species or system rhino mouse; settings: mouse, in vivo
Description: as §1

[3] = rabbit skin irritation model; format: in vivo; settings: rabbit, in vivo, topical or ocular; from IS3 and ED30, Table 4; read-out: Therapeutic index
RARγ = target: T1, RARγ (Homo sapiens, UniProt P13631); experiment: apparent Kd for binding to RARγ; settings: read-out: Kd (γ)
T1 sequence (P13631 1-454): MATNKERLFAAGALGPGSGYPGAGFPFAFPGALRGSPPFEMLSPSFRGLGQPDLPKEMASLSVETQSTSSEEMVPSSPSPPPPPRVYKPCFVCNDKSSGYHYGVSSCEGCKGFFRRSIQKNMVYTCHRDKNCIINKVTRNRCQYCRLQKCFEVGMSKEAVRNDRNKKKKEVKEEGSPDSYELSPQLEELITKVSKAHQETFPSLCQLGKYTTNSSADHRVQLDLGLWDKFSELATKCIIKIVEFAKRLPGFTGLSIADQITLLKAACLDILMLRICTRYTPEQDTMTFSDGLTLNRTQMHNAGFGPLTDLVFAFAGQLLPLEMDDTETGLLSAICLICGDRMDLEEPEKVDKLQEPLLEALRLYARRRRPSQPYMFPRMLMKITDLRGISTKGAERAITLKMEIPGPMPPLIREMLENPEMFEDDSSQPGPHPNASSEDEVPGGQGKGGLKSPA

RARα = target: T2, RARα (Homo sapiens, UniProt P10276); experiment: apparent Kd for binding to RARα; settings: read-out: Kd (α)
T2 sequence (P10276 1-462): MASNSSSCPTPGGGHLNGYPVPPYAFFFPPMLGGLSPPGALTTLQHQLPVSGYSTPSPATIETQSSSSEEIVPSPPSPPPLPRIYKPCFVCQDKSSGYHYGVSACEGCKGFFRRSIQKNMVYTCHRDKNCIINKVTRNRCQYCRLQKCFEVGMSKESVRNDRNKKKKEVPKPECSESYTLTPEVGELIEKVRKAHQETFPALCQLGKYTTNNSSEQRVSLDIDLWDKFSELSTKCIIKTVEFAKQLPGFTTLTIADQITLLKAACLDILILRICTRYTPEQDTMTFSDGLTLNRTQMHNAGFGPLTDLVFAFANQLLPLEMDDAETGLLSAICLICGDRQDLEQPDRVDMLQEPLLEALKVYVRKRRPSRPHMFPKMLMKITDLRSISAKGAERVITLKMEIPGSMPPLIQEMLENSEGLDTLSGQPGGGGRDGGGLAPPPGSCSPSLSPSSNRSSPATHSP

RARβ = target: T3, RARβ (Homo sapiens, UniProt P10826); experiment: apparent Kd for binding to RARβ; settings: read-out: Kd (β)
T3 sequence (P10826 1-455): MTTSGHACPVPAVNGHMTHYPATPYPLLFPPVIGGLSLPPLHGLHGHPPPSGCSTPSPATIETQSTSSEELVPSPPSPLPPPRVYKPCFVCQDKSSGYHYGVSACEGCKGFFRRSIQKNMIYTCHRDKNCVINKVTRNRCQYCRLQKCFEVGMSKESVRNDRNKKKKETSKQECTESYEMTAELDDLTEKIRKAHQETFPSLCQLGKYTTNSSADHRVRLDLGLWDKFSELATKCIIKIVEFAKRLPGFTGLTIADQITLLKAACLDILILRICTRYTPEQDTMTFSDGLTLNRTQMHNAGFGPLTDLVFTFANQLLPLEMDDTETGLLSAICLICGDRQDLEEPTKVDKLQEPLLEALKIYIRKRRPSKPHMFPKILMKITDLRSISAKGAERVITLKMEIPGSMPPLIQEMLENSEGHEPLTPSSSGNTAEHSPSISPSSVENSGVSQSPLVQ

[4] = system: H3396 Breast CA (E2-dep.); experiment: inhibition of cell proliferation (3H-thymidine uptake), H3396; format: cell-based; settings: Homo sapiens
Description: (§2) The compounds of the present invention have been also tested as inhibitors of cell proliferation (^3 H-thymidine uptake). Cells were plated on 96-well plates at a pre-determined density so that 80% cellular confluency is reached by day 7. 24 hr after plating, culture media was changed and cells were treated with the appropriate drug or vehicle (day 0). Culture media was changed on days 3 and 6. Cellular proliferation was measured on Day 7 by quantitating the amount of tritiated thymidine ([3H]-TdR) incorporated into the celular DNA (Odham, K. G. (1977) in: Radiotracer Techniques and Applications, edited by E. A. Evans and M. Murawatsu; M. Dekker Inc. New York; 2, 823).

MCF7 Breast CA (E2-dep.) = experiment: inhibition of cell proliferation (3H-thymidine uptake), MCF7; format: cell-based; settings: Homo sapiens
Description: as §2

SCC 25 tongue SCC = experiment: inhibition of cell proliferation (3H-thymidine uptake), SCC 25; format: cell-based; settings: Homo sapiens
Description: as §2

[5] = system: SK-BR-3 Breast CA (E2-indep.); experiment: inhibition of cell proliferation (3H-thymidine uptake), SK-BR-3; format: cell-based; settings: Homo sapiens
Description: as §2

Calu-3 Lung CA = experiment: inhibition of cell proliferation (3H-thymidine uptake), Calu-3; format: cell-based; settings: Homo sapiens
Description: as §2

[6] = system: Detroit 562 Pharyngeal CA; experiment: inhibition of cell proliferation (3H-thymidine uptake), Detroit 562; format: cell-based; settings: Homo sapiens
Description: as §2

[7] = system: H3396 (ER+) breast carcinoma subcutaneous xenografts; experiment: tumor growth inhibition in athymic mice bearing H3396 xenografts; format: in vivo; settings: intraperitoneal, every two days for 10 days
Description: This potent anti-proliferative activity is also translated in vivo on athymic mice bearing H3396 (ER+) breast carcinoma subcutaneous xenografts (P. A. Trail, et al., Cancer Research, 52, p. 5693-5700 (1992). Athymic mice were implanted with 0.72 mg (60-day release) estradiol pellets (Innovative Research of America, Toledo, Ohio) one day prior to the implantation of H3396 tumors. H3396 tumors were measured in two perpendicular directions at weekly or biweekly intervals, using calipers. Tumor volume was calculated according to the equation: V=I×w^2 /2, where V=volume (mm3), I=measurement of longest axis (mm), and w=measurement of axis perpendicular to 1. In general, there were 8-10 mice in each control or treatment group. Data are presented as median tumor size for control or treated groups. Antitumor activity is expressed in terms of median TVDD values, where TVDD=T-C/TVDT; T-C is defined as the median time (days) for treated tumors to reach 500 mm3 in size minus the median time for control tumors to reach 500 mm3 in size and TVDT is the time (days) for control tumors to double in volume (250-500 mm3).
In this experiment, the tumor growth delay was equivalent to 1.2 log cell kill at 30 mg/kg.

[8] = species and concentration not given
[9] = topical daily in ethanol, 5 days
[10] = 7 days, 3H-thymidine, read-out: IC50

With `CCC(C)(/C=C\C1=CCC(C)(C)c2ccc(/C=C/c3ccc(C(=O)O)cc3)cc21)CC` [Compound B, 4-[(E)-(5,6-Dihydro-5,5-dimethyl-8-((Z)-3-methyl-3-ethyl-1-penten-1-yl)-2-naphthalenyl)ethenyl]benzoic acid] the Erythema score (rabbit skin; concentration not given) was 2.8, the “IS3, irritation in words” value (rabbit skin; [8]) was “Irritating” and the “IS3, irritation relative to TRA” value (rabbit skin) was “<TRA”. The “Utriculi reduction (at 1.6 mM, printed in the 1 mM column)” value (rhino mice [1]; 1.6 mM, topical daily in ethanol, 5 days) was 100%.

For `CC1=C(C#CC(C)(C)C)c2cc(/C=C/c3ccc(C(=O)O)cc3)ccc2C(C)(C)C1` [Compound A, 4-[(E)-(5,6-Dihydro-5,5-dimethyl-7-methyl-8-(3,3-dimethyl-1-butyn-1-yl)-2-naphthalenyl)ethenyl]benzoic acid], the Erythema score (rabbit skin; concentration not given) was 3.1, the “Utriculi reduction at 0.1 mM” value (rhino mice [1]; [9]) was 100% and the ED30 (rhino mice [1]) was < 100 µM. The “IS3, irritation in words” value (rhino mice [2]) was “Very irritating”.

For `CC(C)(C)/C=C\C1=CCC(C)(C)c2ccc(/C=C/c3ccc(C(=O)O)cc3)cc21` [Compound C, 4-[(E)-(5,6-Dihydro-5,5-dimethyl-8-((Z)-3,3-dimethyl-1-buten-1-yl)-2-naphthalenyl)ethenyl]benzoic acid], the selectivity ratio [3] was < 20, the Erythema score (rabbit skin; concentration not given) was 6.0 and the “IS3, irritation in words” value (rabbit skin; in rabbits, concentration not given) was “Very irritating”. For the same compound, the “Utriculi reduction (at 0.01 mM, printed in the 0.1 mM column)” value (rhino mice [1]; 0.01 mM, topical daily in ethanol, 5 days) was 30%, the ED30 (rhino mice [1]) was 80 µM and the “IS3, irritation in words” value (rhino mice [2]) was “Very irritating”.

In the case of `CC(C)(O)/C=C\C1=CCC(C)(C)c2ccc(/C=C/c3ccc(C(=O)O)cc3)cc21` [II, 4-[(E)-(5,6-Dihydro-5,5-dimethyl-8-((Z)-3-methyl-3-hydroxyl-1-buten-1-yl)-2-naphthalenyl)ethenyl]benzoic acid], the Kd (RARγ) is reported as 0.00157 µM, the Erythema score (rabbit skin; concentration not given) is reported as 0 and the “Utriculi reduction at 0.1 mM” value (rhino mice [1]; [9]) is reported as 8.4%. The “Utriculi reduction at 1 mM” value (rhino mice [1]; [9]) was 84%, the ED30 (rhino mice [1]) was 400 µM and the Kd (RARα) was 0.0016 µM. The “IS3, irritation in words” value (rhino mice [2]) was “No irritation” and the Kd (RARβ) was 0.00219 µM.

With “4-[(E)-(5,6-Dihydro-5,5-dimethyl-8-(1-methyl-1-ethane-thio)-2-naphthalenyl)ethenyl]benzoic acid [Compound D]” the Erythema score (rabbit skin; concentration not given) was 5.7, the “IS3, irritation in words” value (rabbit skin; [8]) was “Very irritating” and the “IS3, irritation relative to TRA” value (rabbit skin) was “>>TRA”. For the same compound, the “Utriculi reduction at 0.1 mM” value (rhino mice [1]; [9]) was 85.4% and the ED30 (rhino mice [1]) was < 100 µM.

For `CC1=C(/C=C/C(C)=C/C=C/C(C)=C/C(=O)O)C(C)(C)CCC1` [TRA, All-trans retinoic acid], the IC50 [4] was 0.3 µM, the Erythema score (rabbit skin; concentration not given) was 4.8 and the “IS3 (concentration necessary to achieve an irritation score of 3)” value (rabbit skin; Table 4) was 0.3 mM. For the same compound, the “irritation to rabbit skin” value (rabbit skin; concentrations above 0.1 mM, 14 days, FIG. 2) was “caused significant irritation to rabbit skin”, the IC50 (MCF7 Breast CA (E2-dep.)) was 0.65 µM and the IC50 (SCC 25 tongue SCC) was 0.05 µM. For the same compound, the “Utriculi reduction at 0.1 mM” value (rhino mice [1]; [9]) was 64%, the “Utriculi reduction at 1 mM” value (rhino mice [1]; [9]) was 100% and the ED30 (rhino mice [1]) was 15 µM. For the same compound, the “ED30 (30% reduction in utriculi size)” value (rhino mice [1]) was 28 µM, the IC50 [5] was 0.001 µM and the IC50 (Calu-3 Lung CA) was 0.1 µM. For the same compound, the IC50 [6] was > 10 µM.

For `CC(C)(C)C#CC1=CCC(C)(C)c2ccc(/C=C/c3ccc(C(=O)O)cc3)cc21` [Compound I, 4-[(E)-(5,6-Dihydro-5,5-dimethyl-8-(3,3-dimethyl-1-butyn-1-yl)-2-naphthalenyl)ethenyl]benzoic acid], the IC50 [4, 10] was 0.04 µM, the “tumor growth delay equivalent (log cell kill)” value ([7]; 30 mg/kg) was 1.2 log cell kill and the “potency in inhibiting tumor growth compared with doxorubicin” value ([7]; FIG. 3) was “as potent as doxorubicin”. The Kd (RARγ) was 0.025 µM, the selectivity ratio [3] was > 99 and the “therapeutic index compared with TRA and analogs” value (rabbit skin) was “highly superior to TRA and to most of the closely related analogs”. The “irritation to rabbit skin” value (rabbit skin; 1 mM, 14 days, FIG. 2) was “did not cause any irritation”, the “irritation to rabbit skin” value (rabbit skin; 5 mM) was “did not cause any signs of irritation to rabbit skin; also recorded: did not show any signs of irritation” and the Erythema score (rabbit skin; concentration not given) was 0. The “IS3, irritation in words” value (rabbit skin; in rabbits at 5 mM) was “No irritation”, the IC50 (MCF7 Breast CA (E2-dep.); [10]) was 6.5 µM and the IC50 (SCC 25 tongue SCC; [10]) was 9.5 µM. For the same compound, the “Utriculi reduction at 0.1 mM” value (rhino mice [1]; [9]) was 72%, the “Utriculi reduction at 1 mM” value (rhino mice [1]; [9]) was 100% and the ED30 (rhino mice [1]) was 55 µM. The “ED30 (30% reduction in utriculi size)” value (rhino mice [1]) was 55 µM, the IC50 [5, 10] was 0.008 µM and the IC50 (Calu-3 Lung CA; [10]) was 0.01 µM. It also gave an IC50 [6, 10] of 5.5 µM, a Kd (RARα) of 0.00223 µM and a Kd (RARβ) of 0.00126 µM.
